Data: patent publication US20240115531A1, “Composition for Treating Hair and Scalp” (DR. KURT WOLFF GMBH & CO. KG, priority 2020, published 2024)
Entries after “also recorded” stand apart in the source; their conditions may differ.

Assays:
[1] = tested on: Human epidermal keratinocyte cells (HaCaT); test: MTT assay, cell viability of HaCaT keratinocytes; assay type: cell-based; settings: versus control without DMG, FIG. 1
Procedure: (§1) 1. As part of an in vitro study, the effect of Na-dimethylglycinate was examined in a cell culture model with human horn-forming keratinocyte cells. For this purpose, HaCaT cells were cultured for 1, 3, 5, and 7 days in DMEM medium (including fetal calf serum and an anti biotic-anti mycotic mix) and, among other things, the viability and proliferation of the cells were determined using suitable measurement methods, and the expression of the growth factors relevant for cell growth was measured.
For this measurement, a so-called MTT assay was used to determine cellular metabolic activity as an indicator of cell viability and cytotoxicity. This colorimetric assay is based on the reduction of a yellow tetrazolium salt (3-(4,5-dimethylthiazol-2-yl)-2,5-diphenyltetrazolium bromide or MTT) to purple formazan crystals by metabolically active cells.
Human epidermal keratinocyte cells (HaCaT) were seeded in a 96-well plate at a cell density of 5,000 cells/well and cultured in medium (DMEM with 10% FBS, 1% penicillin-streptomycin, 0.5% fungizone). […]
Cell viability was determined using the MTT assay. The absorption was measured in quadruplicate and normalized to the control at 24 hours. […]

VEGF = test: Gene expression of VEGF by qRT-PCR in HaCaT cells; assay type: cell-based, human; settings: after 24 hours of cultivation, versus control without DMG, FIG. 3
Procedure: VEGF (Vascular Endothelial Growth Factor) promotes the growth and formation of new blood and lymphatic vessels. Gene expression was measured using a standard method known as quantitative real-time PCR (qRT-PCR).
Human epidermal keratinocyte cells (HaCaT) were seeded in a 6-well plate at a cell density of 140,000 cells/well and cultured in medium (DMEM with 10% FBS, 1% penicillin-streptomycin, 0.5% fungizone) at 37° C. und 5% by volume CO2. The next day, the cell culture medium without (control) or with the active substance concentrations already present in each case was changed, and the cells were harvested after 24 hours. Gene expression was measured using qRT-PCR based on studies already published in B. V. Diaz, M.-C. Lenoir, A. Ladoux, C. Frelin, M. Demarchez, S. Michel, Journal of Biological Chemistry 2000, 275, 642-650.
The relative gene expression determined by qRT-PCR (triple determination, normalized to the respective gene expression of a constitutively expressed gene; GAPDH—glyceraldehyde-3-phosphate dehydrogenase) of VEGF is shown. Shown is the mean value with standard deviation.

[2] = tested on: Human epidermal keratinocyte cells (HaCaT); test: CyQUANT assay, cell proliferation of HaCaT keratinocytes; assay type: cell-based; settings: versus control without DMG, FIG. 2
Procedure: as §1
A so-called CyQUANT assay was carried out to measure the proliferation. In this fluorescence-based assay, the fluorescent dye used binds to DNA (deoxyribonucleic acid), with the content of cellular DNA being a direct measure of the number of cells in a sample.
Human epidermal keratinocyte cells (HaCaT) were seeded in a 96-well plate at a cell density of 5,000 cells/well and cultured in medium (DMEM with 10% FBS, 1% penicillin-streptomycin, 0.5% fungizone). The next day and after a further 24 h as well as 48 h and 72 h of cultivation at 37° C. and 5% by volume CO2, the cell culture medium without (control) or with the active ingredient concentrations already present was changed. […]
The cell proliferation was determined using the CyQUANT assay. The fluorescence was measured in triplicate and normalized to the control at 24 hours. […]

SMILES: CN(C)CC(=O)[O-].[Na+] [DMG, sodium dimethylglycinate]
- cell viability (MTT absorption normalized to the control at 24 hours) ([1]; after 48 h of cultivation): clear increase
- cell viability (MTT absorption normalized to the control at 24 hours) ([1]; after 72 h of cultivation): clear increase
- relative gene expression of VEGF (normalized to GAPDH) (VEGF): significant increase; also recorded: significantly increased
- cell proliferation (CyQUANT fluorescence normalized to the control at 24 hours) ([2]; after 48 h of cultivation): clear increase
- cell proliferation (CyQUANT fluorescence normalized to the control at 24 hours) ([2]; after 72 h of cultivation): clear increase
